Results taken from PMC11181322, “Copper(II) Complexes with Isomeric Morpholine-Substituted 2-Formylpyridine Thiosemicarbazone Hybrids as Potential Anticancer Drugs Inhibiting Both Ribonucleotide Reductase and Tubulin Polymerization: The Morpholine Position Matters” (Journal of Medicinal Chemistry, 2024).
Like-named read-outs stand apart in the source and are kept apart here.

Tests used:
[1] = set-up: method as in PMID 32336116; conditions: copper(II) complexes of the named TSCs, measured under similar conditions ref 67; cited from earlier work
[2] = system: tubulin; experiment: Inhibition of [3H]colchicine binding to tubulin; conditions: for inhibition of colchicine binding % inhibition ± SD: tubulin 0.5 μM, colchicine 5 μM
[3] = system: purified tubulin; experiment: Inhibition of polymerization of purified tubulin; assay type: biochemical; conditions: read-out: inhibition of tubulin IC50 ± SD
[4] = system: MES-SA cells; experiment: Fluorescent protein-based cytotoxicity assay, MES-SA; assay type: cell-based, human; conditions: 120 h, ± SD, n = 3
Text: (§1) The cytotoxic activity of proligands H2L^3–H2L^6 and their copper(II) complexes 3–6 was investigated in the MES-SA (human uterine sarcoma) and in its MDR counterpart (MES-SA/Dx5) cell lines by a fluorescent protein-based assay.[73]
(§2) The human uterine sarcoma cell lines MES-SA and the doxorubicin selected MES-SA-Dx5 were obtained from ATCC (MES-SA: No. CRL-1976, MES-SA/Dx5: No. CRL-1977) and were used for the intracellular ROS generation studies. For cytotoxicity, we used the fluorescent cell lines MES-SA mCherry and MES-SA/Dx5 eGFP, which were created by lentiviral transductions of the respective genes.[73] The phenotype of the resistant cells was maintained by 500 nM doxorubicin treatment a week before use and was verified using cytotoxicity assays. Cells were cultivated at 37 °C, 5% CO2 in Dulbecco’s modified Eagle's Medium (DMEM, Sigma-Aldrich), supplemented with 10% fetal bovine serum, 5 mM glutamine, and 50 unit/mL penicillin and streptomycin (Thermo Fisher).
(§3) MES-SA mCherry and MES-SA/Dx5 eGFP cell suspensions were seeded after trypsinization at 2500 cells/20 μL density on 384-well plates, containing 20 μL of completed medium. The next day, serial dilution of the compounds was prepared and added in an additional 20 μL, with or without 0.4 μM Tariquidar. Liquid handling steps were performed by a Hamilton StarLet robot. […] The mean and standard deviation of the pIC50 values were calculated and converted to IC50 values.

[5] = system: MES-SA/Dx5 cells; experiment: Fluorescent protein-based cytotoxicity assay, MES-SA/Dx5; assay type: cell-based, human; conditions: for IC50: 120 h, ± SD, n = 3; for SR, selectivity ratio IC50 (MES-SA)/IC50 (MES-SA/Dx5): in the absence of TQ
Text: as §1, §2, §3

[6] = Proton dissociation constants (pKa) of the proligands by pH-potentiometry, UV–vis and 1H NMR titrations; assay type: physicochemical; conditions: 30% (v/v) DMSO/H2O solvent mixture, I = 0.1 M (KCl), t = 25 °C
Experimental: (§4) The path length was 1 cm.
^1H NMR spectroscopic studies were carried out on a Bruker Avance III HD instrument. All spectra were recorded with the WATERGATE water suppression pulse scheme using sodium trimethylsilylpropanesulfonate as internal standard.

[7] = molecular target: T1, mR2 RNR protein (Mus musculus, UniProt P11157); experiment: Tyrosyl radical reduction in mR2 RNR protein (EPR); assay type: biochemical; conditions: 20 μM mR2, 1:1 protein-to-drug
T1 construct: made in house
T1 sequence (P11157 1-390): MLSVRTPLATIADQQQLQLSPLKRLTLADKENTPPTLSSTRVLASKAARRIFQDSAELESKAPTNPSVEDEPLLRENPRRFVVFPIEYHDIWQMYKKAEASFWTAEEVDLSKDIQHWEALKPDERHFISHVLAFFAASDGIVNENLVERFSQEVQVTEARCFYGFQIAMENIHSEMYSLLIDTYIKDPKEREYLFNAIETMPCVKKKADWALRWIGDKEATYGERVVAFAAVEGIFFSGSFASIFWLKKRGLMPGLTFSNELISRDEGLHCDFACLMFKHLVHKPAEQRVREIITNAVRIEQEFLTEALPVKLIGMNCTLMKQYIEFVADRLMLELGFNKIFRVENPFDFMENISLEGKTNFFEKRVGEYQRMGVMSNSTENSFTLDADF
Experimental: Since α-N-heterocyclic TSCs are very potent R2 RNR inhibitors, the time-dependent Y^• reduction of the mR2 RNR protein was measured. The effect of equimolar concentrations of the proligands H2L^3–H2L^6 and their copper(II) complexes 3–6, in the absence and presence of an external reductant DTT, is shown in Figure 7.
Figure 7 Tyrosyl radical reduction kinetics of mR2 RNR (20 μM) in the absence (triangles) and in the presence (circles) of an external reductant (2 mM DTT) at the 1:1 protein-to-drug ratio, measured by EPR spectroscopy at 30 K, for (a) H2L^3 (black), H2L^4 (red), H2L^5 (blue), and H2L^6 (green) and for (b) 3 (black), 4 (red), 5 (blue), and 6 (green).
Samples containing 20 μM mR2 in 50 mM HEPES buffer, pH 7.5/100 mM NaCl, 20 μM compound in 1% (v/v) DMSO/H2O, in the absence or presence of 2 mM DTT, were incubated for indicated times and quickly frozen in cold isopentane. The same samples were used for repeated incubations at room temperature. The experiments were performed in duplicate.

[8] = calculated at pH 7.4, aqueous solution ref 69, 52; cited from earlier work
[9] = Conditional stability constants of the copper(II) complexes by EDTA displacement (UV–vis); assay type: physicochemical
Experimental: The stability constants of 3–6 were determined by EDTA competition experiments monitored by UV–vis spectrophotometry at pH 5.9, where the [Cu(HL)]^+ species is dominant. Since the displacement of the TSC ligand by EDTA is relatively slow, a 2 h reaction time was used to reach equilibrium. Upon increasing the concentration of EDTA, the absorbance of the characteristic S → Cu charge transfer band at 400–416 nm decreased (see, for example, Figure 3 for the copper(II)–H2L^4 (1:1) system).[68] The experiments were performed in both aqueous solution and the 30% (v/v) DMSO/H2O solvent mixture. The determined conditional (apparent) formation constants (log K′5.9) are rather similar (see Table 2) in both media. However, the values are lower in the DMSO/H2O solvent mixture than in aqueous solution, presumably due to coordination of DMSO to copper(II). An analogous observation was reported for the copper(II) complex of Triapine.[67] […] To compare the copper(II) binding ability of the studied TSCs H2L^3–H2L^6 at pH 5.9 (at which the conditional constants were determined), pCu (−log [Cu(II)]) values were also computed using the experimentally determined equilibrium constants (Table 2). The higher pCu value indicates a stronger metal ion binding ability of the ligand under given circumstances. The ligands form complexes with fairly similar stability, in agreement with the conditional stability constants. […] A similar behavior was reported for aqueous solutions of the N-terminally dimethylated derivative of the 2-pyridinecarboxaldehyde TSC (PTSC)[69] and for the corresponding morpholine-hybrid Morph-dm-FTSC.[52] In particular, the calculated pCu values were also very close, 13.17 for PTSC vs 13.08 for Morph-dm-FTSC calculated at pH 7.4.
as §4

[10] = Cyclic voltammetry of copper(II) complexes in DMSO/n-Bu4NPF6; assay type: physicochemical
Experimental: The redox properties of the copper(II) complexes 3–6 were investigated by electrochemical, EPR, and UV–vis spectroelectrochemical measurements. […] While the half-wave reduction potentials E1/2^red for complexes 3–5 were almost the same (−0.82 V vs Fc^+/Fc), the E1/2^red for 6 is by 0.07 V more positive (−0.75 V vs Fc^+/Fc), as summarized in Table 4. The corresponding proligands are not redox active in the cathodic part (not shown).
Cyclic voltammetric experiments with 0.5 mM solutions of copper(II) complexes 3–6 in 0.1 M nBu4NPF6 (puriss quality from Fluka; dried under reduced pressure at 70 °C for 24 h before use) as supporting electrolyte in DMSO (SeccoSolv max. 0.025% H2O, Merck) were performed under Ar using a three-electrode arrangement with Pt wire as the counter electrode and Ag wire as the pseudoreference electrode. Glassy carbon or Pt wire served as the working electrode. Ferrocene purchased from Sigma-Aldrich was used as the internal potential standard without further purification. All potentials in voltammetric studies were quoted vs ferricenium/ferrocene (Fc^+/Fc) as the redox couple. A Heka PG310USB (Lambrecht, Germany) potentiostat with a PotMaster 2.73 software package served for the potential control in voltammetric studies. In situ ultraviolet–visible-near-infrared (UV–vis–NIR) spectroelectrochemical measurements were performed on a spectrometer (Avantes, Model AvaSpec-2048 × 14-USB2 in the spectroelectrochemical cell kit ([…]3) with the Pt-microstructured honeycomb working electrode, purchased from Pine Research Instrumentation. The cell was positioned in the CUV-UV Cuvette Holder (Ocean Optics) connected to the diode array UV–vis-NIR spectrometer by optical fibers. UV–vis-NIR spectra were processed using the AvaSoft 7.7 software package. Halogen and deuterium lamps were used as light sources (Avantes, Model AvaLight-DH-S-BAL).

[11] = Redox reaction of the copper(II) complexes with GSH (UV–vis, anoxic); assay type: physicochemical; conditions: pH 7.4 (50 mM HEPES); ccomplex = 25 μM; cGSH = 1.25 mM; pure water; 25 °C
Text: The direct reduction of the copper(II) complexes with the antioxidant GSH was investigated in anoxic aqueous solution at pH 7.4 by UV–vis spectrophotometry. At this pH, the complex [Cu(HL)]^+ is assumed to predominate according to the speciation studies (vide supra). The spectral changes were monitored in the wavelength range 250–550 nm by using a large excess of GSH (50 equiv). In this wavelength range, the spectral changes are due to the absorption of the metal complex and the ligand.
These changes imply that, after reduction in the presence of excess GSH, the generated copper(I) complex is not stable and liberates the free TSC ligand. […] The time-dependent absorbance changes are shown for all the studied systems in Figure 4b. The observed rate constants (kobs) were calculated (Table 2) as a semiquantitative description of the reaction kinetics. […] The obtained kobs values fall into the range for Triapine (0.10 min^–1), 2-pyridinecarboxaldehyde TSC (0.041 min^–1), and N-monomethylated N-methyl-Triapine (0.077 min^–1), measured under similar conditions.[67] To find out whether this slightly different kinetics for 6 and 3–5 is in accordance with their reduction potentials, cyclic voltammetry was performed.
The redox reaction of the copper(II) complexes with GSH and ascorbic acid was studied at 25.0 ± 0.1 °C on a Hewlett-Packard 8452A diode array spectrophotometer using a special, tightly closed tandem cuvette (Hellma Tandem Cell, 238-QS). The reactants were separated until the reaction was triggered. Both isolated pockets of the cuvette were completely deoxygenated by bubbling a stream of Ar for 10 min before mixing the reactants. Spectra were recorded before and then immediately after the mixing, and changes were followed until no further absorbance change was observed. One of the isolated pockets contained the reducing agent, and the other contained the complex. Their final concentrations were 1250 and 25 μM, respectively. The pH of all the solutions was adjusted to 7.40 by 50 mM HEPES buffer. The ionic strength of the solution was 0.1 M (KCl). The stock solutions of the reducing agents and the complexes were freshly prepared every day. During the calculations, the absorbance (A) – time (t) curves were fitted and analyzed at the λmax of the complex. (A0 – Afinal) × e^(−a×t) + Afinal was the fitting equation used, where the A0, Afinal, and a parameters were refined and accepted at the minimal value of the weighted sum of squared residuals (difference between the measured and calculated absorbance values) at the given wavelength. Then, observed rate constants (kobs) of the redox reaction were obtained from the data points of the simulated absorbance–time curves as the slope of the ln(A/A0) vs time plots.

## NC(=S)N/N=C/c1ccccn1 [2-pyridinecarboxaldehyde TSC]
[1]
  kobs, reduction by GSH: 0.041 min^–1

## COc1ccc(/C=C\c2cc(OC)c(OC)c(OC)c2)cc1O [C-A4, Combretastatin A-4, reference compound]
[2]; 0.5 μM inhibitor
  inhibition of colchicine binding % inhibition ± SD: 85 ± 2%
[3]
  IC50: […]

## COc1cccc2c1C(=O)c1c(O)c3c(c(O)c1C2=O)C[C@@](O)(C(=O)CO)C[C@@H]3O[C@H]1C[C@H](N)[C@H](O)[C@H](C)O1 [Doxorubicin, reference compound]
[4]; Homo sapiens, MES-SA
  IC50: 0.04 ± 0.01 µM
[5]; Homo sapiens, MES-SA/Dx5
  IC50: 1.9 ± 0.6 µM
[5]
  SR, selectivity ratio IC50 (MES-SA)/IC50 (MES-SA/Dx5): 0.02

## Cc1cc(NC(=S)N/N=C/c2ncccc2CN2CCOCC2)cc(C)c1O [H2L^3]
[6]; UV–vis spectrophotometry, read-out: pKa1
  pKa: 1.53 ± 0.01
[6]; pH–potentiometry, read-out: pKa1
  pKa: < 2
[6]; pH–potentiometry, read-out: pKa2
  pKa: 5.62 ± 0.06
[6]; pH–potentiometry, read-out: pKa3
  pKa: > 10.5
[4]; Homo sapiens, MES-SA
  IC50: 2.9 ± 0.4 µM
[7]; after 15 min, in the presence of 2 mM DTT
  Y• reduced in mR2 protein: ~70%
[7]; without DTT
  Y• reduced in mR2 protein: ca. 20%
[5]; Homo sapiens, MES-SA/Dx5
  IC50: 13.1 ± 3.2 µM
[5]
  SR, selectivity ratio IC50 (MES-SA)/IC50 (MES-SA/Dx5): 0.22

## CN(C)C(=S)NN=Cc1ccccn1 [PTSC]
[8]
  pCu: 13.17

## Cc1cc(NC(=NN=Cc2ncccc2CN2CCOCC2)[S][Cu][Cl])cc(C)c1O [complex 3, [Cu(HL^3)Cl]·H2O]
[9]; EDTA displacement, UV–vis, pH 5.9, 30% (v/v) DMSO/H2O, 25 °C
  logK′5.9 (DMSO/H2O): 10.33 ± 0.01
[9]; EDTA displacement, UV–vis, pH 5.9, water, I = 0.1 M (KCl), 25 °C
  logK′5.9 (H2O): 13.82 ± 0.04
[9]; calcd. at pH 5.9, cL = cCu(II) = 1 μM
  pCu5.9 (=–log[Cu(II)]): 8.20
[2]; 5 μM inhibitor
  inhibition of colchicine binding % inhibition ± SD: 22 ± 2%
[2]; 25 μM inhibitor
  inhibition of colchicine binding % inhibition ± SD: 40 ± 3%
[2]; at the 5 μM concentration
  fold less potent than CA-4 in inhibiting [3H]colchicine binding: 4.5 fold
[10]; first anodic peak potential vs Fc+/Fc, 100 mV s^–1
  Epa^1: +0.27 V
[10]; second anodic peak potential vs Fc+/Fc, 100 mV s^–1
  Epa^2: +0.79 V
[10]; vs Fc+/Fc, scan rate 100 mV s^–1
  E1/2^red: –0.83 V
[11]
  kobs, redox reaction with GSH: 0.059 ± 0.004 min^–1
[4]
  IC50: 15 ± 3 µM
[5]
  IC50: 5.5 ± 0.6 µM
  SR, selectivity ratio IC50 (MES-SA)/IC50 (MES-SA/Dx5): 2.76
[3]
  IC50: 7 ± 0.3 µM
